Tested on: alternative splicing of host transcripts in HeLa rtTA HIV∆Mls cells
Experiment: RT-PCR of host alternative splicing events (PSI), capillary electrophoresis
Assay type: cell-based
Protocol: To assess the effect of compounds on expression/alternative splicing of cellular RNA, two approaches were used. For both, total RNA was prepared from DMSO or compound-treated cells. In the first assay, samples were assayed by medium throughput RT-PCR to determine the inclusion levels of alternatively spliced exons and splice sites located in 73 selected events. 73 primer sets containing a fluorescently (5-FAM) labeled primer for each, were used in RT-PCR. PCR products generated were denatured in formamide and quantified using ABI Prism capillary sequencer (Life Technologies). The fragment analysis was performed on the PeakScanner software (Life Technologies) in batch mode and automated using custom scripts written in Python. The inclusion level of each exon was calculated as the amount of transcripts carrying the alternative exon relative to the total amount of all transcripts detected in the PCR reaction and results are summarized for compound-treatment in comparison to DMSO treatment. In the second assay, extracted RNA was processed using the Illumina TruSeq RNA Sample Preparation Kit (Illumina) according to the manufacturer’s instructions. The cDNA library generated was validated (passed quality control on a Bioanalyzer 1000 DNA chip (Agilent)), normalized and pooled for cluster generation. cDNA libraries were sequenced on the Illumina HiSeq 2500 (paired-end, 125 bp) with version 4 chemistry following manufacturer’s protocols. The full human genome and transcriptomic sequences were downloaded from the UCSC Genome Browser (genome.ucsc.edu) database and Ensembl (www.ensembl.org), respectively, as described by Irimia et al.. Exon annotations and genomic coordinates for alternative splicing (AS) analysis were derived from tables downloaded from the UCSC Genome Browser database. To determine gene expression (GE) or alternative splicing (AS) changes in an unbiased way, the effective number of unique mappable positions in each transcript (i.e. the effective length) was determined by aligning sequences with unique transcriptomic alignment to the human genome using Bowtie. Reads with one unique genomic alignment were then aligned against the canonical transcriptome and, for each transcript, the number of reads with one unique transcriptomic alignment were counted. The expression level of genes was quantified as corrected ‘reads per kilobase of exon model per million mapped reads’ (cRPKM), a widely used metric to estimate gene expression levels. The expression cutoff was 0.5 cRPKM, corresponding to the transcript of the gene being present if there were ≥10 reads that mapped uniquely to a single genomic locus. Approximately 19,847 Ensembl annotated protein-coding genes were compared to create a gene list of differentially expressed genes. Genes were considered differentially expressed if fold changes in cRPKM was ≥2 in compound-treated versus DMSO-treated samples.

[1] = of 70 AS events, 791 30 µM, 833 2 µM

## O=C(NC(=S)NNC(=O)c1ccccc1O)c1ccc(-c2ccccc2)cc1 [Compound 833, N-([2-(2-hydroxybenzoyl)hydrazino]carbonothioyl}-4-biphenylcarboxamide]
5227833 minus DMSO, mean n=3
  DPSI AGPAT4_1 chr6:161506598-161506735: -3.33%
  DPSI AGPAT4_1 chr6:161507269-161507439: -5.00%
  DPSI APLP2_1 chr11:129498717-129498884: -2.67%
  DPSI APP_1 chr21:26291546-26291602: -0.67%
  DPSI APP_1 chr21:26294201-26294368: -0.67%
  DPSI ATP6V0A1_1 chr17:37919833-37920004: 6.67%
  DPSI CA12_1 chr15:61406400-61406485: 0.67%
  DPSI CA12_1 chr15:61407349-61407382: -2.67%
  DPSI CASP9_1 chr1:15703693-15703840*: -1.33%
  DPSI CAST_1 chr5:96090613-96090669: -3.33%
  DPSI CLSTN1_1 chr1:9720143-9720199: -17.00%
  DPSI CLSTN1_2 chr1:9739126-9739155: -4.67%
  DPSI CRBN_1 chr3:3191846-3191950: 0.00%
  DPSI CRBN_1 chr3:3191950-3191953: -2.00%
  DPSI CTNND1_1 chr11:57318058-57318129: -6.67%
  DPSI DNM1L_1 chr12:32782066-32782143: 7.67%
  DPSI DNM1L_1 chr12:32782465-32782497: -4.33%
  DPSI DRCTNNB1A_1 chr7:22953096-22953391: -8.33%
  DPSI EIF4A2_1 chr7:187988792-187988899: -10.67%
  DPSI EIF4A2_1 chr7:187988899-187988904: -7.67%
  DPSI EIF4H_1 chr7:73242512-73242572: -5.00%
  DPSI ERC1_1 chr12:1091641-1091725: -11.00%
  DPSI EXOC7_1 chr17:71598005-71598035: -3.67%
  DPSI EXOC7_1 chr17:71598819-71598911: -5.67%
  DPSI FAM62B_1 chr7:158238233-158238295: -4.67%
  DPSI FAM104A_1 chr17:68720412-68720474: -5.00%
  DPSI FGFR1OP2_1 chr12:27004715-27004828: -20.67%
  DPSI FIP1L1_1 chr4:53975538-53975646: -14.67%
  DPSI GGCT_1 chr7:30504943-30505080: 3.00%
  DPSI GGCT_1 chr7:30506676-30506822: -0.33%
  DPSI GLK_1 chr2:39388587-39388650: -13.67%
  DPSI GM130_1 chr9:130069293-130069374: -18.33%
  DPSI GRB10_1 chr7:50651400-50651538: 0.67%
  DPSI KIF13A_1 chr6:17879324-17879428: -0.33%
  DPSI MACF1_1 chr1:39616720-39616782: 14.00%
  DPSI MACF1_5 chr1:39719179-39719289: -18.33%
  DPSI MAP3K7_1 chr6:91310992-91311072: 2.67%
  DPSI MARK3_1 chr14:103034592-103034618: -9.00%
  DPSI MARK3_1 chr14:103036246-103036290: -5.33%
  DPSI MBD1_1 chr18:46054554-46054721: -3.33%
  DPSI MBNL2_1 chr13:96807051-96807104: 17.33%
  DPSI MFF_1 chr2:227901637-227901749: -11.67%
  DPSI MRIP_1 chr17:17024646-17024708: -6.33%
  DPSI MVK_1 chr12:108501990-108502134: 15.67%
  DPSI MVK_1 chr12:108503583-108503738: 16.67%
  DPSI NAP1L1_1 chr12:74747418-74747520: -15.67%
  DPSI NAP1L1_1 chr12:74748956-74749041: -18.33%
  DPSI NPHP3_1 chr3:133898264-133898347: -6.67%
  DPSI PDCL_1 chr9:124628716-124628892: 3.67%
  DPSI POLDIP3_1 chr22:41327919-41328006: -17.00%
  DPSI POMT1_1 chr9:133368281-133368521: 4.67%
  DPSI POMT1_1 chr9:133371321-133371428: -10.00%
  DPSI RAI14_1 chr5:34849436-34849522: 2.33%
  DPSI RAN_1 chr12:129923082-129923127: -2.00%
  DPSI RPS24_1 chr10:79467729-79467746: 3.00%
  DPSI SEC24B_1 chr4:110622281-110622386: -18.67%
  DPSI SETD5_1 chr3:9453533-9453572: -3.33%
  DPSI SMN2_1 chr5_h2_hap1:475625-475826: 2.33%
  DPSI SMN2_2 chr5_h2_hap1:466192-466246: -7.33%
  DPSI SPAG9_1 chr17:46408223-46408261: -12.00%
  DPSI SRPK2_1 chr2:104553464-104553557: -9.00%
  DPSI SRPK2_1 chr2:104553930-104554023: 5.67%
  DPSI TPM1_1 chr15:61140450-61140525: 1.00%
  DPSI TPM1_1 chr15:61140965-61141040: -1.00%
  DPSI TRIM37_1 chr17:54433741-54433857: -6.67%
  DPSI ZNF827_1 chr4:146903692-146903724: -17.67%
  DPSI ZNF827_1 chr4:146905581-146905589: 0.00%
5227833 minus DMSO, mean n=3, table row r49
  DPSI NUMB_2 chr14:72815742-72815885: 3.67%
5227833 minus DMSO, mean n=3, table row r63
  DPSI NUMB_2 chr14:72815742-72815885: 6.33%
[1]
  AS events with DPSI ≤ -10%: 10
  AS events with DPSI ≥ 10%: 1
  AS events with P ≤ 0.05: 22

Source: PMC5267425, “Identification of small molecule modulators of HIV-1 Tat and Rev protein accumulation” (Retrovirology, 2017)
